Source: ChEMBL document CHEMBL5096229, “A 1,2,3-Triazole Derivative of Quinazoline Exhibits Antitumor Activity by Tethering RNF168 to SQSTM1/P62” (J Med Chem, 2022)
Calls of active or inactive are those of the source. The rule behind the calls is not given here.

How the values were obtained:
HCT-116 [1] = assay: Induction of cell cycle arrest in human HCT-116 cells assessed as accumulation at G0/G1 phase at 0.34 uM after 24 hrs by propidium iodide-staining based flow cytometry (reference value: 58.01 +/- 1.77%); type: functional
HCT-116 [2] = assay: Induction of cell cycle arrest in human HCT-116 cells assessed as accumulation at G2/M phase at 0.34 uM after 24 hrs by propidium iodide-staining based flow cytometry (reference value: 23.25 +/- 1.38%); type: functional
HCT-116 [3] = assay: Induction of cell cycle arrest in human HCT-116 cells assessed as accumulation at S phase at 0.34 uM after 24 hrs by propidium iodide-staining based flow cytometry (reference value: 17.17 +/- 0.18%); type: functional
HCT-116 [4] = assay: Cytotoxicity against human HCT-116 cells assessed as reduction in cell viability incubated for 72 hrs by MTS assay; type: functional, cell-based; settings: HCT-116, 72 h
A549 = assay: Cytotoxicity against human A549 cells assessed as reduction in cell viability incubated for 72 hrs by MTS assay; type: functional, cell-based; settings: A549, 72 h
HCT-116 [5] = assay: Induction of cell cycle arrest in human HCT-116 cells assessed as accumulation at S phase at IC50 concentration after 24 hrs by propidium iodide-staining based flow cytometry (reference value: 17.17 +/- 0.18%); type: functional
HCT-116 [6] = assay: Induction of cell cycle arrest in human HCT-116 cells assessed as accumulation at G2/M phase at IC50 concentration after 24 hrs by propidium iodide-staining based flow cytometry (reference value: 23.25 +/- 1.38%); type: functional
MCF7 = assay: Cytotoxicity against human MCF7 cells assessed as reduction in cell viability incubated for 72 hrs by MTS assay; type: functional, cell-based; settings: MCF7, 72 h
MDA-MB-231 = assay: Cytotoxicity against human MDA-MB-231 cells assessed as reduction in cell viability incubated for 72 hrs by MTS assay; type: functional, cell-based; settings: MDA-MB-231, 72 h
HeLa = assay: Cytotoxicity against human HeLa cells assessed as reduction in cell viability incubated for 72 hrs by MTS assay; type: functional, cell-based
HCT-116 [7] = assay: Induction of cell cycle arrest in human HCT-116 cells assessed as accumulation at G0/G1 phase at IC50 concentration after 24 hrs by propidium iodide-staining based flow cytometry (reference value: 58.01 +/- 1.77%); type: functional
U2OS = assay: Cytotoxicity against human U2OS cells assessed as reduction in cell viability incubated for 72 hrs by MTS assay; type: functional, cell-based
A-375 = assay: Cytotoxicity against human A-375 cells assessed as reduction in cell viability incubated for 72 hrs by MTS assay; type: functional, cell-based; settings: A-375, 72 h
[8] = Cytotoxicity against human MCF-10A cells assessed as reduction in cell viability incubated for 72 hrs by MTS assay; type: toxicity, cell-based
MGC-803 = assay: Cytotoxicity against human MGC-803 cells assessed as reduction in cell viability incubated for 72 hrs by MTS assay; type: functional, cell-based; settings: MGC-803, 72 h
HCT-116 [9] = assay: Induction of apoptosis in human HCT-116 cells at 5 to 10 uM measured after 24 hrs by annexinV-FITC/propidium iodide staining based flow cytometry analysis; type: functional, cell-based; settings: dose 5-10 µM
HCT-116 [10] = assay: Induction of autophagy in human HCT-116 cells assessed as increase in p62 protein level measured after 12 to 24 hrs by Western blot analysis; type: functional, cell-based; settings: time 12-24 hrs
HCT-116 [11] = assay: Induction of autophagy in human HCT-116 cells assessed as increase in LC-3B puncta level measured after 12 to 24 hrs by immunofluorescence analysis; type: functional, cell-based; settings: time 12-24 hrs
HepG2 = assay: Cytotoxicity against human HepG2 cells assessed as reduction in cell viability incubated for 72 hrs by MTS assay; type: functional, cell-based; settings: HepG2, 72 h
[12] = molecular target: T1, E3 ubiquitin-protein ligase RNF168 (Homo sapiens, UniProt Q8IYW5); assay: Binding affinity to RNF168 in human HCT-116 cells lysates at 10 uM by pull-down based immunoblot assay; type: subcellular; settings: filed as activator
Sequestosome-1 = Sequestosome-1 (Homo sapiens, UniProt Q13501); assay: Binding affinity to P62 in human HCT-116 cells lysates at 10 uM incubated for 12 hrs by pull-down based immunoblot assay; type: subcellular; settings: filed as activator
Bacteria [13] = assay: Binding affinity to bacteria produced His tagged-P62 at 10 uM incubated for 12 hrs by pull-down based immunoblot assay; settings: filed as activator
[14] = molecular target: T1, E3 ubiquitin-protein ligase RNF168; assay: Binding affinity to RNF168 (unknown origin) by MST assay
Bacteria [15] = assay: Binding affinity to bacteria produced GST-tagged RNF168 at 10 uM by pull-down based immunoblot assay; settings: filed as activator

T1 sequence (Q8IYW5 whole entry): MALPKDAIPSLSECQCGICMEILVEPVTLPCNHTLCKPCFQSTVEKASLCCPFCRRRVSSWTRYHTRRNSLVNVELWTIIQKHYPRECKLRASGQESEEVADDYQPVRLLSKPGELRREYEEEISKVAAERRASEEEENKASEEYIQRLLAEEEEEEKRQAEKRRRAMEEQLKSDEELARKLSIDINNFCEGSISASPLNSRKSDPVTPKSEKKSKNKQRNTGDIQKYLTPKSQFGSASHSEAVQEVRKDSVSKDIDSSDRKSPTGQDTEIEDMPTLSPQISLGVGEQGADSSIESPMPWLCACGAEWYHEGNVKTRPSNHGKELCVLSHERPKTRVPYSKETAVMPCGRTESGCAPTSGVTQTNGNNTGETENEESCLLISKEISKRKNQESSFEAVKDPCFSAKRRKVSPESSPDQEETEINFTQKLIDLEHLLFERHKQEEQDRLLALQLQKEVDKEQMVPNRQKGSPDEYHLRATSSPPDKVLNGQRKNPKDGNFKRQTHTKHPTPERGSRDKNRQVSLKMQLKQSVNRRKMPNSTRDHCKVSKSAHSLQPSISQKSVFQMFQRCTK
Sequestosome-1, sequence (Q13501 whole entry): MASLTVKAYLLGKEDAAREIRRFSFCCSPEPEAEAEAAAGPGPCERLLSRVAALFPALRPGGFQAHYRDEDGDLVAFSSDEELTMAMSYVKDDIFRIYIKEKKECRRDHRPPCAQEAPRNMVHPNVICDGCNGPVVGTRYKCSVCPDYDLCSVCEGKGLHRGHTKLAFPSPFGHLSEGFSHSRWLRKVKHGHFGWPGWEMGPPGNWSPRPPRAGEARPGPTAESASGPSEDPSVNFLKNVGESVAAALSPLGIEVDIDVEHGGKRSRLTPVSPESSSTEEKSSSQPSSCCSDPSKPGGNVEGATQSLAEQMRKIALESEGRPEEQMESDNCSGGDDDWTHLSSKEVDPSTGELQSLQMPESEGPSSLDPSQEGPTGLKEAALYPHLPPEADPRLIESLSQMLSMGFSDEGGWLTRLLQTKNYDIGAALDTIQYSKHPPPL

Compound	IC50 (HCT-116 [4]) [µM]	IC50 (A549) [µM]	other results
COC(=O)Nc1nc2cc(C(=O)c3cccs3)ccc2[nH]1 [NOCODAZOLE]	–	–	Activity (HCT-116 [1]): 2.92%; Activity (HCT-116 [2]): 93.17%; Activity (HCT-116 [3]): 7.11%
Nc1nc(N)c2cc(-c3cn(-c4ccc(Cl)cc4)nn3)ccc2n1	2.15	7.61	–
Nc1nc(N)c2cc(-c3cn(-c4ccccc4)nn3)ccc2n1	1.93	2.18	–
O=c1[nH]cc(F)c(=O)[nH]1 [FLUOROURACIL]	4.89	4.52	Activity (HCT-116 [5]): 65.12%; Activity (HCT-116 [6]): 11.89%; IC50 (MCF7): > 20 µM; IC50 (MDA-MB-231): 10.2 µM; IC50 (HeLa): > 20 µM; Activity (HCT-116 [7]): 34.65%; IC50 (U2OS): > 20 µM; IC50 (A-375): 3.52 µM; IC50 at 72 h [8]: > 20 µM; IC50 (MGC-803): 7.54 µM
Nc1nc(N)c2cc(-c3cn(-c4ccc([N+](=O)[O-])cc4)nn3)ccc2n1	9.86	7.83	–
CC[C@@]1(O)C(=O)OCc2c1cc1n(c2=O)Cc2cc3ccccc3nc2-1	–	–	Activity (HCT-116 [9]): Active
Nc1nc(N)c2cc(-c3cn(-c4ccc(F)cc4F)nn3)ccc2n1	3.29	3.74	–
COc1ccc(-n2cc(-c3ccc4nc(N)nc(N)c4c3)nn2)c([N+](=O)[O-])c1	8.04	8.4	–
COc1cccc(-n2cc(-c3ccc4nc(N)nc(N)c4c3)nn2)c1	2.75	3.27	–
CCN(CC)CCCC(C)Nc1ccnc2cc(Cl)ccc12 (stereo not drawn)	–	–	Activity (HCT-116 [10]): Active; Activity (HCT-116 [11]): Active
COc1ccc(-n2cc(-c3ccc4nc(N)nc(N)c4c3)nn2)cc1	2.44	> 20	–
COc1cc(-n2cc(-c3ccc4nc(N)[nH]c(=O)c4c3)nn2)cc(OC)c1OC	> 20	> 20	–
N#Cc1ccc(-n2cc(-c3ccc4nc(N)nc(N)c4c3)nn2)cc1	> 20	> 20	–
Nc1nc(N)c2cc(-c3cn(-c4ccc(O)cc4)nn3)ccc2n1	> 20	> 20	–
Nc1nc(N)c2cc(-c3cn(-c4ccc(F)cc4)nn3)ccc2n1	2.89	8.7	–
COc1ccc(OC)c(-n2cc(-c3ccc4nc(N)nc(N)c4c3)nn2)c1	3.09	8.36	–
Nc1nc(N)c2cc(-n3cc(-c4ccccc4)nn3)ccc2n1	5.46	6.65	–
COc1cc(-n2cc(-c3ccc4nc(C)[nH]c(=O)c4c3)nn2)cc(OC)c1OC	> 20	> 20	–
COc1cc(OC)cc(-n2cc(-c3ccc4nc(N)nc(N)c4c3)nn2)c1	1.34	4.74	–
Nc1nc(N)c2cc(-c3cn(-c4ccc(Br)cc4)nn3)ccc2n1	1.69	2.14	–
Cc1nc2ccc(CN(C)c3ccc(C(=O)N[C@@H](CCC(=O)O)C(=O)O)s3)cc2c(=O)[nH]1 [RALTITREXED]	0.076	0.81	IC50 (HepG2): 9.63 µM; IC50 (MCF7): 10.9 µM; IC50 (MDA-MB-231): > 20 µM; IC50 (HeLa): 5.51 µM; IC50 (U2OS): > 20 µM; IC50 (A-375): 4.68 µM; IC50 at 72 h [8]: > 20 µM; IC50 (MGC-803): 9.52 µM
COc1cc(-c2cn(-c3ccc4nc(N)nc(N)c4c3)nn2)cc(OC)c1OC	0.87	1.88	–
COc1cc(-n2cc(-c3ccc4nc(N)nc(NCCCCCCNC(=O)CCCC[C@@H]5SC[C@@H]6NC(=O)N[C@@H]65)c4c3)nn2)cc(OC)c1OC	–	–	Activity [12]: Active; Activity (Sequestosome-1): Active; Activity (Bacteria [13]): Active; Kd [14]: 6.82 µM; Activity (Bacteria [15]): Active
Cc1ccc(-n2cc(-c3ccc4nc(N)nc(N)c4c3)nn2)cc1	2.46	1.78	–
COc1ccc(-n2cc(-c3ccc4nc(N)nc(N)c4c3)nn2)c(OC)c1	5.35	> 20	–
COc1ccc(-n2cc(-c3ccc4nc(N)nc(N)c4c3)nn2)cc1O	> 20	> 20	–
